We go through 1 molecule from paper PMC11023993, “Piperine, quercetin, and curcumin identified as promising natural products for topical treatment of cutaneous leishmaniasis” (Parasitology Research, 2024).

Data set [1] has as its system intracellular amastigotes of L. braziliensis. Kind of data set: In vitro leishmanicidal activity against intracellular amastigotes in infected U-937 macrophages (flow cytometry). It is filed as cell-based, Leishmania braziliensis. Conditions: for EC50: Leishmania braziliensis. As for the experimental part:
Infective L. braziliensis (MHOM/CO/88/UA301-eGFP) (Pulido et al. [2012]) were cultured in Novy-MacNeal-Nicolle (NNN) biphasic medium at 26 °C for 3 passages maximum. U-937 cells, prepared as described in the previous section, were adjusted to approximately 3 × 10^5 cells per mL of supplemented RPMI 1640 medium containing […] of PMA to induce cell adherence. One mL was dispensed into each well of a 24-well plate and platters were incubated at 37 °C in % CO2, 95% humidity atmosphere for 72 h. Then, adherent cells were infected with fluorescent promastigotes of L. braziliensis in a 15:1 parasite to cell ratio. Plates were incubated again at 34 °C and % CO2, 95% humidity atmosphere. After 24 h, non-phagocytosed parasites were washed by pipetting phosphate buffered solution (PBS) in the plate at room temperature and 500 µL of fresh complete RPMI 1640 medium was added. Then, 500 µL of each serial dilution of QUE, PIP, CUR, and amphotericin B was added to each well and plates were incubated at 34 °C with % CO2, 95% humidity atmosphere. The EC50, the median effective concentration to induce […] killing of the intracellular amastigotes in infected cells, was measured by Flow cytometry at 488 nm of excitation and 525 nm of emission. After 48 h of incubation, cells were harvested with cold dissociation buffer (1x PBS with 2% EDTA) and the harvested cells were washed with buffer (1 × PBS with 2% FBS), and results were analyzed by FlowJo 10. The EC50 was determined with a non-lineal regression using Prism GraphPad 10.
The LC50 and the EC50 were calculated by Probit analysis using GraphPad Prism 10 (San Diego, CA, USA). Both cytotoxicity and leishmanicidal activity were defined by ranges of values of LC50 and EC50 in terms of high, moderate, or low as follows: high cytotoxicity for LC50 values < 100 µM, moderate cytotoxicity for LC50 values > 100 µM but < 200 µM, and low cytotoxicity for LC50 values > 200 µM. […] In addition, the cytotoxicity in U937 macrophages was correlated with the leishmanicidal activity by calculating the Selectivity Index (SI), using the equation: SI = LC50/EC50 (Indrayanto et al. [2021]).
For orientation: Flow cytometry measures light scatter and fluorescence of single cells or particles in a stream.

Data set [2] concerns L. braziliensis. On the set-up: method as in Dos Santos et al. [2022]. Particulars: oral 20 mg/kg five times a week, from 7 days after infection for 8 weeks; ref Dos Santos et al. [2022]; cited from earlier work.
Data set [3] relates to L. braziliensis-induced cutaneous leishmaniasis ulcers. Kind of data set: Histopathological analysis (H-E) of healed ulcers from treated hamsters. It counts as in vivo, golden hamsters (Mesocricetus auratus). Set-up: key to Dermis: oedema (grade) / Dermis: granulomatous inflammation (grade) / Epidermis: orthokeratotic hyperkeratosis (grade) / Epidermis: spongiosis (grade) / Epidermis: ulcer (grade) / Dermis: neovascularization (grade) / Dermis: fibroplasia (grade) / Dermis: leukocytic infiltrate (grade): 0, absent; 1, mild; 2, mild to moderate; 3, moderate; 4, moderate to severe; 5, severe. As for the experimental part:
The changes were analyzed under a standard optical microscope.

The subject of data set [4] is L. braziliensis. Particulars: n = 6. The source says: Golden hamsters (Mesocricetus auratus) were purchased from Charles River Laboratories (Wilmington MA, USA) and bred under specific pathogen-free conditions at the animal facility unit of the Universidad de Antioquia in Medellín, Colombia. Six- to eight-week-old, male, and female hamsters were used for the experiments. Animal experimentation protocols including handling of the animals, sample collection, and euthanasia were done in compliance of the Center for Diseases Control and Prevention guidelines for Safe Work Practices in Human and Animal Medical Diagnostic Laboratories and ARRIVE guidelines (Percie du Sert et al. [2020b]; Khairani et al. [2022]) and approved by the Institutional Ethical Committee for animal experimentation (Act No. 152 of June 01, 2023) (Percie du Sert et al. [2020a]; Khairani et al. [2022]).
Hamsters were anesthetized with ketamine (80 mg/kg, i.p.) and xylazine (15 mg/Kg) before infection and then, ∼1 × 10^8 promastigotes in stationary phase (6 days-old growth) were inoculated into the dorsum dermis (Robledo et al. [2012]). When hamsters developed ulcers larger than 12.5 mm^2, hamsters were randomly distributed into 4 groups (n = 6, each): (1) group treated with QUE (1 mg/day), (2) group treated with PIP (2.5 mg/day), (3) group treated with CUR (1.5 mg/day), (4) group treated with meglumine antimoniate (treatment control group, 200 µg/mL, intralesional). No vehicle control group was included in the present study because castor oil additive is a nonionic surfactant commonly used as an excipient in pharmaceutical formulations, particularly in solubilizing poorly water-soluble drugs. It is widely used as an ingredient in cosmetics for its conditioning properties, based on occlusive action, reducing water loss, and having a nourishing effect on the skin, hair, and nails (Marwat et al. [2017]; Khairani et al. [2022]).
Hamsters were treated daily with 40 µL of the corresponding formulation for 2 weeks, applying it directly over the lesion, while hamsters treated with meglumine antimoniate received treatment three times per week for 4 weeks. Lesion area was measured every week for 90 days with an electronic digital caliper. The body weight gain or loss was supervised every 2 weeks during the study. At the end of the study, hamsters were euthanized with an i.p. injection of ketamine (600 mg/kg) and xylazine (30 mg/kg). The experiments were carried out under normal laboratory lighting conditions. After necropsy, biopsies from healed and unhealed ulcers were removed and fixed in 10% buffered formalin, processed, and stained with hematoxylin–eosin (H-E) stain for histopathology analysis. The changes were analyzed under a standard optical microscope.

The next data set has as its system macrophages. Set-up: method as in Dos Santos et al. [2022]. Particulars: ref Dos Santos et al. [2022], cited from earlier work.
The mark [5] stands for this setting: healed ulcer after topical treatment.

Read-outs that look alike come from different tables or passages of the source. Where only a bound is given, the exact number is not on record here.

In the case of `O=c1c(O)c(-c2ccc(O)c(O)c2)oc2cc(O)cc(O)c12` [Quercetin, quercetin], the “SI (Selectivity Index = LC50/EC50)” value in data set [1] (LC50 U-937 / EC50 L. braziliensis amastigotes) is recorded as greater than 20.6. For the same molecule, the EC50 in data set [1] (U-937, amastigote stage of L. braziliensis, read-out: in vitro antileishmanial activity (EC50 in mass units)) amounted to 9.7 ± 0.6 µg/mL. In addition, in data set [1] (intracellular amastigotes of L. braziliensis in U-937 macrophages, 48 h, read-out: EC50 (Median Effective Concentration)), the EC50 amounted to 32 ± 2 µM. The Leishmanicidal activity entry in data set [1] (class by EC50 on intracellular amastigotes of L. braziliensis) is “High (high activity corresponds to EC50 values < 50 µM)”. Further, the “lesion size and parasite load (lesion and draining lymph node)” value with L. braziliensis [2] was “effectively controlled the lesion size and reduced the parasite load”. Further, the “granulomas and amastigotes in healed skin” value in data set [3] (H-E stain, healed skin after topical treatment) is reported as “No amastigotes are observed”. In addition, in data set [3] (setting [5]), the “Dermis: fibroplasia (grade)” value was 3, the “Dermis: granulomatous inflammation (grade)” value was found to be 0, the “Dermis: leukocytic infiltrate (grade)” value is given as 3 and the “Dermis: neovascularization (grade)” value came out at 2. For the same molecule, in data set [3] (setting [5]), the “Dermis: oedema (grade)” value is recorded as 2, the “Epidermis: orthokeratotic hyperkeratosis (grade)” value was 2, the “Epidermis: spongiosis (grade)” value is 2 and the “Epidermis: ulcer (grade)” value is on record as 0. The treatment failures entry in the data set on L. braziliensis [4] (topical daily for 15 days) is “No failures”. In addition, the “therapeutic response (hamsters cured)” value with L. braziliensis [4] (topical in castor oil daily for 15 days, QUE 1 mg/day, CUR 1.5 mg/day, PIP 2.5 mg/day, followed 90 days) stood at 100%. The “concentration giving substantial decrease in macrophage viability” value in the data set on macrophages is on record as “exceeding 640 µM”. The EC50 with macrophages (read-out: macrophage viability, estimated EC50) was 478 ± 89 µM.
